Entries after “also recorded” stand apart in the source; their conditions may differ. Like-named read-outs stand apart in the source and are kept apart here.
Assays:
human Rio1 [1] = target: T1, human Rio1 (Homo sapiens, UniProt Q9BRS2); experiment: Rio1 autophosphorylation assay ([γ-32P]ATP); format: biochemical; details: 0.5 µM ATP; for IC50: 37 °C, 15 min, read-out: IC50 (µM) ± SD Rio1; for Ki: read-out: Ki (µM) ± SD Rio1
T1 construct: Human recombinant kinase Rio1 containing residues 134–494 was expressed and purified as previously reported; made in house
T1 sequence (Q9BRS2 134-494): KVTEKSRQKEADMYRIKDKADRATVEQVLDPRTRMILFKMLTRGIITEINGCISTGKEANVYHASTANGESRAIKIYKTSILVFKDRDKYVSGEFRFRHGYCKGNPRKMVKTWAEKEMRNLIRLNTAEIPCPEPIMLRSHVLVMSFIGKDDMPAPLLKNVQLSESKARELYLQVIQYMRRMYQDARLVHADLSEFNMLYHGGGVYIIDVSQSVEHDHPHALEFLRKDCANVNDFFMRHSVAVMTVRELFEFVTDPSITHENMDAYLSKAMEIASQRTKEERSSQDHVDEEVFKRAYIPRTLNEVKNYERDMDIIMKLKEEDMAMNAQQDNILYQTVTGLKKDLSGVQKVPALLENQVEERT
Procedure: Recombinant human protein kinase GST-CK2α was produced in bacteria and purified as described elsewhere. The plasmid carrying the gene encoding human protein kinase Rio1 (residues […]) was kindly gifted by Professor Nicole LaRonde—LeBlanc (University of Maryland, USA). Human recombinant kinase Rio1 containing residues 134–494 was expressed and purified as previously reported with a few modifications.
In order to determine the autophosphorylation of human Rio1, the enzyme was incubated at 37 °C for 15 min in 50 μl samples each containing 1 pmol of human recombinant Rio1 and an appropriate concentration of tested compound (0.01–50 µM). The reaction buffer contained 0.5 µM ATP, [γ-^32P]ATP (specific radioactivity 300–1000 cpm/pmol), 50 mM NaCl, 10 mM Mg^2+, 50 mM Tris–HCl pH 7.5, and 6 mM 2-mercaptoethanol.
(§1) The phosphorylation was terminated by addition of SDS/PAGE sample buffer, and proteins were resolved by electrophoresis, followed by Coomassie Brilliant Blue staining. The gels were dried and ^32P-labelled bands of P2B and Rio1 were excised from the gel, and radioactivity was determined in a scintillation counter (MicroBeta, Perkin Elmer) by Cerenkov counting.
(§2) IC50, K i, K m, and V max values were calculated using GraphPad Prism (version 4.0) software.

hCK2α [2] = target: T2, hCK2α (Homo sapiens, UniProt P68400); experiment: CK2 phosphorylation assay (P2B substrate, [γ-32P]ATP); format: biochemical; design: GST (N); made in house; host or cells: bacteria; details: for IC50 / Ki: 20 µM ATP, P2B protein substrate; for IC50: 37 °C, 5 min, read-out: IC50 (µM) ± SD CK2; for Ki: read-out: Ki (µM) ± SD CK2; for inhibition of CK2 stronger than that of Rio1 (fold): CK2 versus Rio1
T2 sequence (P68400 whole entry): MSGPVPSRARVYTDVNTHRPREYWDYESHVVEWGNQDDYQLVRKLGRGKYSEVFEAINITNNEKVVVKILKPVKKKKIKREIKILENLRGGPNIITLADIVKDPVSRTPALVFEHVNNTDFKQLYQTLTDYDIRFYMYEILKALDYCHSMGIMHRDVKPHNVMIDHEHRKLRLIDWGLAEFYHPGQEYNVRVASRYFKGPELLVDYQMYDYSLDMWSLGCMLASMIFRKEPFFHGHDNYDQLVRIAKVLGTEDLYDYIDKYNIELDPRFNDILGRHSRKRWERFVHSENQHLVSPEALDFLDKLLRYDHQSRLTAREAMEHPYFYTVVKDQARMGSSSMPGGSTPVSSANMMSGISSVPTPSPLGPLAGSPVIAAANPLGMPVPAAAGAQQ
Procedure: Recombinant human protein kinase GST-CK2α was produced in bacteria and purified as described elsewhere.
The reaction buffer contained 20 µM [γ-^32P]ATP (specific radioactivity 300–1000 cpm/pmol), 15 mM Mg^2+, 20 mM Tris–HCl pH 7.5, and 6 mM 2-mercaptoethanol.
as §1, §2

human Rio1 [3] = target: T1, human Rio1; experiment: Steady-state kinetics of Rio1 autophosphorylation (Km for ATP, Vmax) with TIBI; format: biochemical
Procedure: Additionally, the same protocol was followed with the addition of TIBI to the reaction mixture at a concentration of 0.01, 0.05, and 0.1 µM.
as §1, §2

hCK2α [4] = target: T2, hCK2α; experiment: Thermofluor (thermal shift) assay, CK2α; format: binding; details: 100 µM TIBI
Procedure: The procedure was performed according to the protocol described elsewhere with a few modifications. 10-µl reactions containing 50 mM NaCl, 10 mM Mg^2+, 50 mM Tris–HCl pH 7.5, 1 mg/ml hRio1 or hCK2α, and 100 µM TIBI or 5% DMSO (control) were incubated at 4 °C for 30 min. 10 µl of the SYPRO Orange dye was then added to the reactions. […] The changes in fluorescence intensity were measured as the temperature increased. Melting temperatures (T m) of hRio1 and CK2 in the presence and absence of TIBI were calculated using Bio-Rad software. The experiment was performed in duplicate.

hRio1 [5] = target: T3, hRio1 (Homo sapiens, UniProt Q9BRS2); experiment: Size-exclusion chromatography of Rio1 (oligomeric state); details: 100 µM TIBI, 2 mg/ml hRio1
T3 construct: Human recombinant kinase Rio1 containing residues 134–494 was expressed and purified as previously reported; made in house
T3 sequence (Q9BRS2 134-494): T1 sequence (Q9BRS2 134-494)
Procedure: The glass column (200/10 mm) filled with the Sephadex G-200 medium (GE Healthcare) was equilibrated with a buffer containing 10 mM Tris, pH 7.5, 150 mM NaCl, and 6 mM β-mercaptoethanol. In order to calibrate the column, four proteins, namely β-amylase (200 kDa), alcohol dehydrogenase (150 kDa), bovine serum albumin (67 kDa), and ovalbumin (43 kDa), were separately loaded onto the column. 100-µl samples containing 2 mg/ml hRio1 diluted in the equilibration buffer in the presence or absence (control) of 100 µM TIBI were then loaded onto the column. The chromatography was performed at a flow rate 0.2 ml/min using the FPLC system AKTA Purifier 10 (GE Healthcare), and runs were monitored by OD280.

[6] = system: promyelocytic leukemia cell line HL-60; design: method as in PMID 21229880; details: cited from earlier work
hRio1 [7] = target: T3, hRio1; experiment: Thermofluor (thermal shift) assay, Rio1; format: binding; details: 100 µM TIBI
Procedure: The procedure was performed according to the protocol described elsewhere with a few modifications. 10-µl reactions containing 50 mM NaCl, 10 mM Mg^2+, 50 mM Tris–HCl pH 7.5, 1 mg/ml hRio1 or hCK2α, and 100 µM TIBI or 5% DMSO (control) were incubated at 4 °C for 30 min. 10 µl of the SYPRO Orange dye was then added to the reactions. The samples were heated from 4 to 98 °C at a rate of 0.2° per second using a thermal cycler (CFX 1000, Bio-Rad). The changes in fluorescence intensity were measured as the temperature increased. Melting temperatures (T m) of hRio1 and CK2 in the presence and absence of TIBI were calculated using Bio-Rad software. The experiment was performed in duplicate.

human Rio1 [8] = target: T1, human Rio1; experiment: Rio1 autophosphorylation assay ([γ-32P]ATP); format: biochemical
hRio1 [9] = target: T3, hRio1; details: cited from earlier work
human Rio1 [10] = target: T1, human Rio1; details: cited from earlier work

IC50 (human Rio1 [1]) [µM]	IC50 (hCK2α [2]) [µM]	Ki (hCK2α [2]) [µM]	Ki (human Rio1 [1]) [µM]	SMILES	also measured
0.61 ± 0.02	0.39 ± 0.012	0.167		CN(C)c1nc2c(Br)c(Br)c(Br)c(Br)c2n1C [1Me-DMAT, 4,5,6,7-tetrabromo-N,N,1-trimethylbenzimidazole-2-amine]	inhibition of CK2 stronger than that of Rio1 (fold) (hCK2α [2]): twofold stronger
0.37 ± 0.011			0.209 ± 0.008	O=C(O)c1ccc2c(c1)nc(Nc1cccc(Cl)c1)c1ccncc12 [CX-4945, Silmitasertib, reference compound]	
0.19 ± 0.009			0.1	CN(C)c1nc2c(Br)c(Br)c(Br)c(Br)c2[nH]1 [DMAT, 2-dimethylamino-4,5,6,7-tetrabromobenzimidazole, reference compound]	
0.19 ± 0.011	0.066 ± 0.003	0.025 ± 0.001	0.1 ± 0.004	Cc1nc2c(I)c(I)c(I)c(I)c2[nH]1 [K92, 4,5,6,7-tetraiodo-2-methylbenzimidazole]	inhibition of CK2 stronger than that of Rio1 (fold) (hCK2α [2]): fourfold stronger
0.29 ± 0.009	0.3 ± 0.009	0.128 ± 0.005	0.164 ± 0.007	Brc1c(I)c(Br)c2nc[nH]c2c1I [K95, 4,6-dibromo-5,7-diiodobenzimidazole]	
0.33 ± 0.007			0.186 ± 0.009	Brc1c(Br)c(Br)c2[nH]cnc2c1Br [TBI, 4,5,6,7-tetrabromobenzimidazole]	
0.65 ± 0.03	0.33 ± 0.013	0.141 ± 0.005	0.367 ± 0.012	CC(CC(=O)O)Sc1nc2c(Br)c(Br)c(Br)c(Br)c2[nH]1 (stereo not shown) [TBSB, 3-(4,5,6,7-tetrabromobenzimidazole-2-ylsulfanyl)butanoic acid]	inhibition of CK2 stronger than that of Rio1 (fold) (hCK2α [2]): twofold stronger
1.9 ± 0.07	9.7 ± 0.3	4.15 ± 0.1	1.07 ± 0.04	Clc1c(Cl)c(Cl)c2[nH]cnc2c1Cl [TCI, 4,5,6,7-tetrachlorobenzimidazole]	
2.17 ± 0.06	1.51 ± 0.04	0.647 ± 0.014	1.23 ± 0.03	CC(CC(=O)O)Cn1c(N(C)C)nc2c(Br)c(Br)c(Br)c(Br)c21 (stereo not shown) [TDBB, 3-methyl-4-[4,5,6,7-tetrabromo-2-(dimethylamino)benzimidazole-1-yl]butanoic acid]	
0.09 ± 0.005	0.083 ± 0.003	0.035 ± 0.001	0.05 ± 0.002	Ic1c(I)c(I)c2[nH]cnc2c1I [TIBI, 4,5,6,7-tetraiodobenzimidazole]	mode of inhibition of Rio1 (human Rio1 [3]): strict ATP-competitive inhibitors; Vmax of Rio1 in the presence of TIBI (human Rio1 [3]; no shift with increasing TIBI concentration): 0.09 pmol/s; ΔTm at 100 µM (hCK2α [4]; bound versus unbound, read-out: shift in melting temperature (Tm) of CK2α): 20 °C; melting temperature (Tm) of TIBI-bound CK2α (hCK2α [4]; unbound enzyme 58.8 °C): 78.8 °C; effect on oligomeric state (monomer–tetramer equilibrium) of Rio1 (hRio1 [5]): does not influence the oligomeric state; also recorded: did not observe any changes in the monomer–tetramer equilibrium; proapoptotic activity [6]: proapoptotic activity; ΔTm at 100 µM (hRio1 [7]; bound versus unbound, read-out: shift in melting temperature (Tm) of Rio1): 10 °C; melting temperature (Tm) of bound Rio1 (hRio1 [7]; unbound enzyme 58.8 °C): 68.8 °C; IC50 (human Rio1 [8]; IC50 against Rio1 at 0.01 µM ATP, 0.01 µM ATP): 0.046 µM; IC50 (human Rio1 [8]; IC50 against Rio1 at 0.1 µM ATP, 0.1 µM ATP): 0.061 µM; IC50 (human Rio1 [8]; IC50 against Rio1 at 1 µM ATP, 1 µM ATP): 0.101 µM

SMILES	IC50 (human Rio1 [1]) [µM]	IC50 (hCK2α [2]) [µM]	Ki (hCK2α [2]) [µM]	Ki (human Rio1 [1]) [µM]	also measured
Brc1c(Br)c(Br)c2[nH]nnc2c1Br [TBB, 4,5,6,7-Tetrabromo-2-azabenzimidazole, reference compound]	1.74 ± 0.05			0.983 ± 0.03	
Cn1c(SCC(=O)O)nc2c(Br)c(Br)c(Br)c(Br)c21 [TBTS, [(4,5,6,7-tetrabromo-N,N,1-trimethylbenzimidazole-2-yl)sulfanyl]acetic acid]		0.6 ± 0.03	0.257 ± 0.009	0.39 ± 0.011	
NCCNc1nc2c(I)c(I)c(I)c(I)c2[nH]1 [TI-2Am, 4,5,6,7-tetraiodobenzimidazole-2-amine-ethylamine]	0.23 ± 0.01	0.05 ± 0.002	0.021 ± 0.001	0.13 ± 0.005	inhibition of CK2 stronger than that of Rio1 (fold) (hCK2α [2]): ca. sixfold stronger
CN(C)c1nc2c(I)c(I)c(I)c(I)c2n1C [TIdiMe, 2-dimethylamino-1-metyl-4,5,6,7-tetraiodobenzimidazole]	0.24 ± 0.008	0.2 ± 0.006	0.085 ± 0.003	0.135 ± 0.005	
N#Cc1cn([C@@H]2O[C@H](CO)[C@@H](O)[C@H]2O)c2ncnc(N)c12 [Toyocamycin, toyocamycin, reference compound]	3.66 ± 0.09	54.8 ± 1.9	23.5 ± 0.8	2.07 ± 0.07	shift in Tm of human Rio1 bound to toyocamycin (hRio1 [9]): 12.1 °C; mode of inhibition of Rio1 (human Rio1 [10]): mixed inhibition
